Laboratory results as given in patent US20040156869A1, “2-substituted quinazolin-4-ylamine analogues” (Neurogen Corporation, priority 2002, published 2004).

target: human capsaicin receptor (VR1) (Homo sapiens, UniProt Q8NER1); assay: Capsaicin receptor binding assay ([3H]RTX competition, VR1-transfected HEK293 membranes)
Sequence (Q8NER1 whole entry): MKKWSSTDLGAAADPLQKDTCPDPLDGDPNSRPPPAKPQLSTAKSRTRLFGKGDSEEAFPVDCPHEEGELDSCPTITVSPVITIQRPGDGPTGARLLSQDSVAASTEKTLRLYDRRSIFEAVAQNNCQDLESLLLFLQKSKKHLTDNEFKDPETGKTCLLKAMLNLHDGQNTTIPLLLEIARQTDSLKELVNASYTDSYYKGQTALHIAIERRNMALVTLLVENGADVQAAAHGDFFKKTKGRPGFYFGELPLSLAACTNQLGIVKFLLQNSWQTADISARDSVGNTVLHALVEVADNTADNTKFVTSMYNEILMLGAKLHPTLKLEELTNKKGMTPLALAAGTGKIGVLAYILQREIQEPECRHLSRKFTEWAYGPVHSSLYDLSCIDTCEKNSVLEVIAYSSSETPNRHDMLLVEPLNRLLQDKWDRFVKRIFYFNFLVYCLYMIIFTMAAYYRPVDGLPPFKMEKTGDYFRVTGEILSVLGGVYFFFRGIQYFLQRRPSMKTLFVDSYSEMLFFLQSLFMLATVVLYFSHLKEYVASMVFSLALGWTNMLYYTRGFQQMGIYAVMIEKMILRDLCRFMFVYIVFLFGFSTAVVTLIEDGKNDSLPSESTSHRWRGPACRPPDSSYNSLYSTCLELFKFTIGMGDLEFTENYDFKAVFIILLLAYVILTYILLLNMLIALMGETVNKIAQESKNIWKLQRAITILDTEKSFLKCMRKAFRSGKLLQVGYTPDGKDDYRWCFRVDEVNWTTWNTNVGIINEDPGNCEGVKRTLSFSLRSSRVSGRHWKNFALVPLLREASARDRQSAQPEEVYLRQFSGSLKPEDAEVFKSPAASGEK

Ki, < 1 µM:
CCCCN(C)CCc1nc(Nc2ccc(C(F)(F)F)cc2)c2ccc(-c3ncccc3C(F)(F)F)cc2n1 [Compound 413, [2-[(Butyl-methyl-amino)-ethyl]-7-(3-trifluoromethyl-pyridin-2-yl)-quinazolin-4-yl]-(4-trifluoromethyl-phenyl)-amine]
CCN(CCc1nc(Nc2ccc(C(F)(F)F)cc2)c2ccc(-c3ncccc3C(F)(F)F)cc2n1)C(C)C [Compound 414, [2-[(Isopropyl-ethyl-amino)-ethyl]-7-(3-trifluoromethyl-pyridin-2-yl)-quinazolin-4-yl]-(4-trifluoromethyl-phenyl)-amine]
C=CCN(CC=C)CCc1nc(Nc2ccc(C(F)(F)F)cc2)c2ccc(-c3ncccc3C(F)(F)F)cc2n1 [Compound 415, [2-Diallylaminoethyl-7-(3-trifluoromethyl-pyridin-2-yl)-quinazolin-4-yl]-(4-trifluoromethyl-phenyl)-amine]
CCCN(CCC)CCc1nc(Nc2ccc(C(F)(F)F)cc2)c2ccc(-c3ncccc3C(F)(F)F)cc2n1 [Compound 416, [2-Dipropylaminoethyl-7-(3-trifluoromethyl-pyridin-2-yl)-quinazolin-4-yl]-(4-trifluoromethyl-phenyl)-amine]
CCCCN(CC)CCc1nc(Nc2ccc(C(F)(F)F)cc2)c2ccc(-c3ncccc3C(F)(F)F)cc2n1 [Compound 417, [2-[(Butyl-ethyl-amino)-ethyl]-7-(3-trifluoromethyl-pyridin-2-yl)-quinazolin-4-yl]-(4-trifluoromethyl-phenyl)-amine]
CCCN(CCc1nc(Nc2ccc(C(F)(F)F)cc2)c2ccc(-c3ncccc3C(F)(F)F)cc2n1)CC1CC1 [Compound 418, [2-[(Cyclopropylmethyl-propyl-amino)-ethyl]-7-(3-trifluoromethyl-pyridin-2-yl)-quinazolin-4-yl]-(4-trifluoromethyl-phenyl)-amine]
CCCCCCN(C)CCc1nc(Nc2ccc(C(F)(F)F)cc2)c2ccc(-c3ncccc3C(F)(F)F)cc2n1 [Compound 419, [2-[(Hexyl-methyl-amino)-ethyl]-7-(3-trifluoromethyl-pyridin-2-yl)-quinazolin-4-yl]-(4-trifluoromethyl-phenyl)-amine]
CCCCN(CCCC)CCc1nc(Nc2ccc(C(F)(F)F)cc2)c2ccc(-c3ncccc3C(F)(F)F)cc2n1 [Compound 420, [2-Dibutylaminoethyl-7-(3-trifluoromethyl-pyridin-2-yl)-quinazolin-4-yl]-(4-trifluoromethyl-phenyl)-amine]
CC(C)N(C)CCc1nc(Nc2ccc(C(F)(F)F)cc2)c2ccc(-c3ncccc3C(F)(F)F)cc2n1 [Compound 421, [2-[(Isopropyl-methyl-amino)-ethyl]-7-(3-trifluoromethyl-pyridin-2-yl)-quinazolin-4-yl]-(4-trifluoromethyl-phenyl)-amine]
CC1CCCCN1CCc1nc(Nc2ccc(C(F)(F)F)cc2)c2ccc(-c3ncccc3C(F)(F)F)cc2n1 (stereo not shown) [Compound 422, [2-(2-Methyl-piperidin-1-ylethyl)-7-(3-trifluoromethyl-pyridin-2-yl)-quinazolin-4-yl]-(4-trifluoromethyl-phenyl)-amine]
C=C(C)CN(CC)CCc1nc(Nc2ccc(C(F)(F)F)cc2)c2ccc(-c3ncccc3C(F)(F)F)cc2n1 [Compound 423, [2-{2-[Ethyl-(2-methyl-allyl)-amino]-ethyl}-7-(3-trifluoromethyl-pyridin-2-yl)-quinazolin-4-yl]-(4-trifluoromethyl-phenyl)-amine]
CN(CCc1nc(Nc2ccc(C(F)(F)F)cc2)c2ccc(-c3ncccc3C(F)(F)F)cc2n1)C1CCCCC1 [Compound 424, [2-[(Cyclohexyl-methyl-amino)-ethyl]-7-(3-trifluoromethyl-pyridin-2-yl)-quinazolin-4-yl]-(4-trifluoromethyl-phenyl)-amine]
CCC1CCCCN1CCc1nc(Nc2ccc(C(F)(F)F)cc2)c2ccc(-c3ncccc3C(F)(F)F)cc2n1 (stereo not shown) [Compound 425, [2-(2-Ethyl-piperidin-1-ylethyl)-7-(3-trifluoromethyl-pyridin-2-yl)-quinazolin-4-yl]-(4-trifluoromethyl-phenyl)-amine]
CCN(CCc1nc(Nc2ccc(C(F)(F)F)cc2)c2ccc(-c3ncccc3C(F)(F)F)cc2n1)C1CCCCC1 [Compound 426, [2-[(Cyclohexyl-ethyl-amino)-ethyl]-7-(3-trifluoromethyl-pyridin-2-yl)-quinazolin-4-yl]-(4-trifluoromethyl-phenyl)-amine]
COCCN(CCOC)CCc1nc(Nc2ccc(C(F)(F)F)cc2)c2ccc(-c3ncccc3C(F)(F)F)cc2n1 [Compound 427, [2-{2-[Bis-(2-methoxy-ethyl)-amino]-ethyl}-7-(3-trifluoromethyl-pyridin-2-yl)-quinazolin-4-yl]-(4-trifluoromethyl-phenyl)-amine]
CCCCCN(CCCCC)CCc1nc(Nc2ccc(C(F)(F)F)cc2)c2ccc(-c3ncccc3C(F)(F)F)cc2n1 [Compound 428, [2-Dipentylaminoethyl-7-(3-trifluoromethyl-pyridin-2-yl)-quinazolin-4-yl]-(4-trifluoromethyl-phenyl)-amine]
CCCCCCN(CCCCCC)CCc1nc(Nc2ccc(C(F)(F)F)cc2)c2ccc(-c3ncccc3C(F)(F)F)cc2n1 [Compound 429, [2-Dihexylaminoethyl-7-(3-trifluoromethyl-pyridin-2-yl)-quinazolin-4-yl]-(4-trifluoromethyl-phenyl)-amine]
CC1CC(C)CN(CCc2nc(Nc3ccc(C(F)(F)F)cc3)c3ccc(-c4ncccc4C(F)(F)F)cc3n2)C1 (stereo not shown) [Compound 430, [2-(3,5-Dimethyl-piperidin-1-ylethyl)-7-(3-trifluoromethyl-pyridin-2-yl)-quinazolin-4-yl]-(4-trifluoromethyl-phenyl)-amine]
CCN1CCCC1CNC(=O)c1nc(Nc2ccc(C(F)(F)F)cc2)c2ccc(-c3ncccc3C(F)(F)F)nc2n1 (stereo not shown) [Compound 431, 4-(4-Trifluoromethyl-phenylamino)-7-(3-trifluoromethyl-pyridin-2-yl)-pyrido[2,3-d]pyrimidine-2-carboxylic acid (1-ethyl-pyrrolidin-2-ylmethyl)-amide]
O=C(NCCCN1CCCC1)c1nc(Nc2ccc(C(F)(F)F)cc2)c2ccc(-c3ncccc3C(F)(F)F)nc2n1 [Compound 432, 4-(4-Trifluoromethyl-phenylamino)-7-(3-trifluoromethyl-pyridin-2-yl)-pyrido[2,3-d]pyrimidine-2-carboxylic acid (3-pyrrolidin-1-yl-propyl)-amide]
CN1CCN(CCCNC(=O)c2nc(Nc3ccc(C(F)(F)F)cc3)c3ccc(-c4ncccc4C(F)(F)F)nc3n2)CC1 [Compound 433, 4-(4-Trifluoromethyl-phenylamino)-7-(3-trifluoromethyl-pyridin-2-yl)-pyrido[2,3-d]pyrimidine-2-carboxylic acid [3-(4-methyl-piperazin-1-yl)-propyl]-amide]
CN(C)CC(C)(C)CNC(=O)c1nc(Nc2ccc(C(F)(F)F)cc2)c2ccc(-c3ncccc3C(F)(F)F)nc2n1 [Compound 434, 4-(4-Trifluoromethyl-phenylamino)-7-(3-trifluoromethyl-pyridin-2-yl)-pyrido[2,3-d]pyrimidine-2-carboxylic acid (3-dimethylamino-2,2-dimethyl-propyl)-amide]
